This passage reports TGI and GI50 results from PubChem BioAssay (NCI).

“And” between values parts separate entries of the source, which are not always exact repeats. Equal values may be shown once.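 Growth conditions: 96-well plates. Treatment: test compound, 48 hours, 5 concentrations. Analysis: linear interpolation between bracketing concentrations; unreached endpoints set to highest concentration. The concentration for 50% growth inhibition is given as GI50. TGI is the concentration that stops growth completely.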 Where only a bound is given, the exact number is not on record here.

What all share (experiment): NCI anticancer screen, dose series, 48 h
The test system of experiment [1] is A498 renal.
Experiment [2] relates to HCC-2998 colon.
The subject of experiment [3] is K-562 leukemia.
Experiment [4] has as its system KM12 colon.
For experiment [5], the system named is MDA-MB-231 breast.
In experiment [6] the test system is NCI-H522 lung.
For experiment [7], the system named is OVCAR-5 ovarian.
Experiment [8] has as its system PC-3 prostate.
Experiment [9] has as its system SK-MEL-2 melanoma.
In experiment [10] the test system is NCI-H226 lung.

Regarding `COc1cc(-c2oc3ccccc3c(=O)c2O)cc(OC)c1OC`, the TGI in experiment [1] is greater than 100 µM; in [2], greater than 100 µM; in experiment [3], greater than 100 µM; in experiment [4], greater than 100 µM; in experiment [5], greater than 100 µM; in experiment [6], greater than 80.3 µM. Moreover, the TGI in experiment [7], in experiment [8] and in experiment [9] was greater than 100 µM throughout.
On to `Cc1cccc(NC(=O)c2sc3nc4c(cc3c2N)CCCC4)c1C`, for which the GI50 in [1] was 0.232 µM; in experiment [2] it was 1.59 µM; in experiment [3] it was 0.238 µM; in [4] it was 0.342 µM; in [5], 1.6 µM; in experiment [10], 1.44 µM. Also, the GI50 is 0.269 µM in [6], 1.79 µM in [7], 0.468 µM in experiment [8] and 0.515 µM in experiment [9]. Besides, the TGI in [1] is 0.981 µM; in experiment [2] it was greater than 100 µM; in experiment [3], greater than 100 µM; in [4], greater than 100 µM; in [5], greater than 100 µM; in experiment [10], greater than 25.1 µM. In addition, the TGI in [6], in experiment [7], in experiment [8] and in [9] was greater than 100 µM in each case.
With `N#CC(C#N)SCc1ccccc1`, the TGI was greater than 100 µM in experiment [1]; greater than 100 µM in experiment [2]; greater than 100 µM in experiment [4]; 76.6 µM in experiment [10]; 57.7 µM in experiment [6]; greater than 40.3 µM in experiment [7]. For the same molecule, the figures for the TGI in experiment [8] and in experiment [9] were greater than 100 µM and 93 µM, respectively.
Take `S=C(N/N=C/c1cc(Cl)cc(Cl)c1)NC12CC3CC(CC(C3)C1)C2`: the GI50 in experiment [1] is 2.19 µM; in experiment [2], greater than 100 µM; in [3], greater than 100 µM; in experiment [4], greater than 100 µM; in [5], 3.99 µM; in experiment [10], greater than 29.9 µM. The GI50 in [6] is greater than 63.4 µM; in experiment [7], 13.6 µM; in experiment [8], greater than 30.2 µM; in experiment [9], 7.74 µM. Further, the TGI was 7.73 µM in [1]; greater than 100 µM in experiment [2]; greater than 100 µM in [3]; greater than 100 µM in experiment [4]; greater than 100 µM in experiment [5]; greater than 100 µM in experiment [10]. Besides, the TGI in experiment [6] was greater than 100 µM; in [7], greater than 100 µM; in experiment [8], greater than 100 µM; in [9], greater than 30.3 µM.
For the molecule `Cc1ccc(C(=O)Nc2ccc(CN3CCN(C)CC3)c(C(F)(F)F)c2)cc1C#Cc1cnc(N)c2ccc(F)cc12`, the GI50 is 0.327 µM in experiment [1]; 0.377 µM in experiment [2]; 0.00431 µM in experiment [3]; 0.186 µM in experiment [4]; 0.353 µM in experiment [5]; 0.737 µM in [10]. In addition, the GI50 in [6] was 0.214 µM; in [7], 0.694 µM; in [8] it was 0.508 µM; in experiment [9], 0.27 µM. In addition, the TGI in experiment [1] is 0.961 µM; in experiment [2] it was 0.798 µM; in experiment [3], 0.9 µM; in experiment [4] it was 0.778 µM; in [5], 0.905 µM; in [10], 3.66 µM. Further, the TGI came to 0.723 µM in [6], 2.7 µM in [7], 1.66 µM in experiment [8] and 1.44 µM in [9].
In the case of `CSc1ccc(/C=C2\CNC/C(=C\c3ccc(SC)cc3)C2=O)cc1`, the GI50 is 35.2 µM and 33.2 µg/mL in experiment [1]; > 371 µM and 150 µg/mL in experiment [2]; 150 µg/mL in experiment [3]; 150 µg/mL in experiment [4]; 99.7 µg/mL in experiment [10]; 22.3 µg/mL in [6]. For the same molecule, the GI50 in [7] and in experiment [9] was 150 µg/mL throughout. Besides, the TGI in experiment [1] was 159 µM and 118 µg/mL; in experiment [2], > 371 µM and 150 µg/mL; in [3], > 371 µM and 150 µg/mL; in experiment [4], > 371 µM and 150 µg/mL; in experiment [5], 362 µM; in [10] it was 104 µM and 150 µg/mL. Besides, the TGI in experiment [6] is > 161 µM and 63.5 µg/mL; in experiment [7] it was > 371 µM and 150 µg/mL; in experiment [9], > 371 µM and 150 µg/mL.
As to `COC(=O)C1=C(OC(=O)c2ccc(Cl)cc2)C(C(=O)OC)[C@@]2(O)[C@@H](C(=O)OC)C(c3ccccc3C(F)(F)F)C[C@@H]1[C@@H]2C(=O)OC` (some centres not stated), the GI50 in experiment [1] is 1.76 µM; in [2], 5.54 µM; in [3], 3.36 µM; in [4], 23.9 µM; in experiment [5], 2.07 µM; in [6], 16.4 µM. For the same molecule, the values for the GI50 in experiment [7], in [8] and in experiment [9] were 54.2 µM, 4.5 µM and 15.5 µM, respectively. The TGI was 7.25 µM in [1]; greater than 100 µM in experiment [2]; greater than 100 µM in experiment [3]; 64.2 µM in experiment [4]; 6.19 µM in experiment [5]; 43.6 µM in experiment [6]. Besides, the TGI in experiment [7] is greater than 100 µM; in experiment [8], greater than 100 µM; in experiment [9], 33.9 µM.
In the case of `C/C(=N\O)c1ccc(Nc2cc(-n3nnc4ccccc43)nc3ccccc23)cc1`, the GI50 was 7.25 µM in experiment [1]; 5.32 µM in experiment [3]; 2.98 µM in experiment [4]; 2.53 µM in [5]; 7.88 µM in experiment [10]; 6.39 µM in experiment [6]. The GI50 in experiment [7] is 8.49 µM; in [8] it was 4.5 µM; in experiment [9], 15.6 µM. Moreover, the TGI in experiment [1] was 30.8 µM; in experiment [3] it was greater than 100 µM; in experiment [4] it was 10.9 µM; in [5] it was 9.37 µM; in [10] it was 30.3 µM; in experiment [6], 22.8 µM. The TGI in [7] was greater than 37.3 µM; in [8] it was 20.5 µM; in [9] it was 47.6 µM.
As to `CON(C)C(=O)C(C)NC(=O)OCc1ccccc1` (configuration not stated), the TGI in experiment [1], in experiment [2], in experiment [3], in experiment [4], in experiment [10] and in experiment [7] was greater than 100 µM in each case. The TGI in experiment [8] was greater than 100 µM.
